{"source": "patent US6514999B1", "about": "“Use of an agent for treating the symptoms of Parkinson's disease” (priority 1998, dated 2003)", "test_system": "symptoms of Parkinson's disease", "assay": "Application to parkinsonian patients for treating the symptoms of Parkinson's disease", "type": "in vivo, human (parkinsonian patients)", "conditions": "compared within the anilide group of local anesthetics (lidocaine, bupivacaine, butanilicaine, etidocaine, tolycaine)", "excerpt": "The inventive use has the effect, upon application to parkinsonian patients, that the specific symptoms of Parkinson's disease clearly subside, the resulting improved condition of the patient continuing for several hours and even days. In particular, a clear improvement of disease-specific symptoms was obtained with the inventive use […] “local anesthetic of the anilide group” essential to the inventive use belongs in general to the local anesthetics of different structure, the local anesthetics of the anilide group and their derivatives being preferred for treatment as a subgroup of said local anesthetics. Examples of said subgroup are not only mepivacaine but also lidocaine, bupivacaine, butanilicaine, etidocaine and tolycaine. […] One supposition is that the small molecular size of mepivacaine provides an increased probability of crossing the blood-brain barrier. Mepivacaine is in addition lipophilic, i.e. lipid-loving, and tends to attach to fat molecules. It is remarkable in this connection that neurons are usually embedded in fat and an accumulation or concentration of mepivacaine in fat will presumably also have effects on the nervous pathways running through fatty tissue. Levodopa also has strong lipophilia, like mepivacaine, so that this connection might also provide a mechanism of action. […]", "data": [{"smiles": "Cc1cccc(C)c1NC(=O)C1CCCCN1C", "note": "(stereo not shown) [mepivacaine]", "values": [{"measurement": "effectiveness in treating patients with Parkinson's disease", "result": "most effective"}]}]}
